# Test results published in patent publication US20080267948A1, “Croos-B Structure Binding Compounds” (priority 2005, published 2008).
# “Also recorded” adds a separate entry of the source.
# Legend:
# human blood platelets = experiment: Platelet aggregation (aggregometric assay with washed platelets); type: cell-based; details: for platelet aggregation by compound alone: 25 or 50 μg/ml ellagic acid, hydrate
# Description: The influence of amyloid-β(1-40) E22Q Dutch type (Aβ) peptide aggregates with cross-β structure conformation on blood platelet aggregation was tested with washed platelets in an aggregometric assay. Freshly drawn human aspirin free blood was mixed gently with citrate buffer to avoid coagulation. Blood was spinned for 15′ at 150*g at 20° C. and supernatant was collected; platelet rich plasma (PRP). […] After spinning down the platelets upon centrifugation for 15′ at 330*g at 20° C., the pellet was resuspended in HEPES-Tyrode buffer pH 6.5. Prostacyclin was added to a final concentration of 10 ng/ml, and the solution was centrifuged for 15′ at 330*g at 20° C., with a soft brake. The pellet was resuspended in HEPES-Tyrode buffer pH 7.2 in a way that the final platelet number was adjusted to 200,000/μl. Platelets were kept at 37° C. for at least 30′, before use in the assays, to ensure that they were in the resting state.
# Aggregation of platelets was monitored in an aggregometer (Chrono-Log Corporation, Havertown, Pa., USA) for 15 minutes at 37° C. with a magnet stirring speed of 900 rpm. First, 270 μl of platelet solution was pipetted in the cuvettes and after 1 minute of stirring, 30 μl of preincubated (5 minutes, RT) Aβ and Hematein solution or control was added. The hematein stock was 10 mg/ml in HEPES-Tyrode buffer. The Aβ stock was 1 mg/ml. For blank readings unstirred HEPES Tyrode buffer was used. The aggregation is expressed as the percentage of the light transmission (0-100%). As a positive control, synthetic thrombin receptor activating peptide (TRAP) induced platelet aggregation was used. A control experiment was performed to study the influence of the red colour of hematein on the light transmission. For this, 4 μM TRAP was added at time 1 minute to the platelets, then hematein was added after 6 minutes of aggregation. The platelets were used for not more than 4 hours after isolation to reduce variations in sensitivity amongst subsequent measurements.
# Ellagic acid was first dissolved to 100 mg/ml in DMSO, and then further diluted to 1 mg/ml in HBS buffer. Final concentrations of Aβ and ellagic acid in the aggregation assay were 50 μg/ml and 25/50 μg/ml, respectively. In addition, the influence of ellagic acid alone on platelet aggregation was tested. As a control, the influence of 0.08% DMSO on 50 μg/ml Aβ-induced platelet aggregation was analyzed. The 100% DMSO of the ellagic acid stock was diluted 2000 and 4000×, resulting in […] final DMSO concentrations in the aggregation assay.
# tPA/plasminogen = target: T1, tPA/plasminogen (Homo sapiens, UniProt P00750); experiment: tPA/plasminogen activation by pre-formed misfolded OVA in the presence of compounds; type: biochemical; details: 80-fold or 160-fold diluted compound and misfolded OVA stocks of 1 mg/ml
# T1 construct: purchased Boehringer Ingelheim Actilyse
# T1 sequence (P00750 36-562): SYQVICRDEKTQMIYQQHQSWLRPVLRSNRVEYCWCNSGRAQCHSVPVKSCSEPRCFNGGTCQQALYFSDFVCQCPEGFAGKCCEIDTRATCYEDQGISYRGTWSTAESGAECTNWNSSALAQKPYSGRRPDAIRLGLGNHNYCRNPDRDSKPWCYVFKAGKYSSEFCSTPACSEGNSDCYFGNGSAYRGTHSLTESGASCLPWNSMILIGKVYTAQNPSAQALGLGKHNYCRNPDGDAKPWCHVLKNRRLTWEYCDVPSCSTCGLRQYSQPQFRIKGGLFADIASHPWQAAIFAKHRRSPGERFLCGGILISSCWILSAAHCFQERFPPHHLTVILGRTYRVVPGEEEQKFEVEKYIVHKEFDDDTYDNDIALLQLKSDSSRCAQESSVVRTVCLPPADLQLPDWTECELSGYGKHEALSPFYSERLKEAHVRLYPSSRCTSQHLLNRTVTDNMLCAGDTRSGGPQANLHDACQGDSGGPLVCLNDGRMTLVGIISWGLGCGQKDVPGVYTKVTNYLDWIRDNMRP
# Description: […] Negative control was buffer without OVA. […] In addition, it was assessed whether the compounds interfere with absorbance readings at 405 nm, with converted chromogenic substrate. […] The yellow solution is divided over wells of an ELISA plate. […] Signals are compared and related to the control.
# tPA = tPA (Homo sapiens, UniProt P00750); experiment: tPA serine protease activity with OVA heated in the presence of compounds (substrate S-2765); type: biochemical; design: purchased Boehringer Ingelheim Actilyse; details: OVA heated with 1 mg/ml compound, 80-, 160- or 320-fold diluted, 100 nM tPA
# tPA, sequence (P00750 36-562): as above
# Description: For this purpose, the influence of the compounds on heat-denaturation of OVA was analyzed (see above: Thioflavin T fluorescence measurements). Heated OVA at 1 mg/ml in PBS in the presence or absence of 1 mg/ml of the twelve compounds listed in Table 7 in PBS/DMSO (final DMSO concentration 1%) was used 80-fold or 160-fold or 320-fold diluted (final heated OVA concentration and compound concentration was 12.5 or 6.3 or 3.1 μg/ml; final DMSO concentration was 0.013% and 0.006% and 0.003%).
smiles,measurement,setting,value
"O=c1oc2c(O)c(O)cc3c(=O)oc4c(O)c(O)cc1c4c23 [compound 117, Ellagic acid hydrate]",influence on Aβ induced platelet aggregation,"human blood platelets; 25 and 50 μg/ml ellagic acid hydrate, 100 μg/ml Aβ",further enhances amyloid-β triggered aggregation
same,platelet aggregation by compound alone,human blood platelets; listed as ellagic acid hydrate,potent activator of platelets resulting in their aggregation; also recorded: Stimulation of platelet aggregation
same,platelet aggregation by compound alone,human blood platelets; listed as ellagic acid,strong inducer of aggregation
same,influence on tPA/plasminogen activation by pre-formed misfolded OVA,tPA/plasminogen,Full block of tPA/plasminogen activation by misfolded OVA
same,influence on tPA protease activity of OVA heated in the presence of compound,tPA,Potentiation of tPA protease activity
